From patent US10053458B2, “Pyrimidine-2,4-diamine derivative and anticancer pharmaceutical composition comprising same as effective ingredient” (KOREA RESEARCH INSTITUTE OF CHEMICAL TECHNOLOGY, priority 2014, dated 2018)
Like-named read-outs stand apart in the source and are kept apart here.

Tests used:
H3122 = test: Cancer cell proliferation inhibition (SRB/MTS), H3122; conditions: read-out: H3122 GI50
Experimental: (§1) Cancer cell lines used in the experiments were all human-derived cancer cell lines, specifically H2228 and H3122, which are non-small cell lung cancer cell lines.
(§2) The cancer cell proliferation inhibition was measured using the MTS assay as follows. […] Each culture medium was placed in an incubator for 4 hours, taken out and left at room temperature for 10 minutes.

BaF3 EML4-ALK WT cells [1] = test: Cytotoxicity on BaF3 cell transfected with EML4-ALK WT (WST-1); conditions: read-out: BaF3 EML4-ALK WT, IC50 of the cytotoxicity
ALK wt. = ALK wt. (Homo sapiens (Human), UniProt Q9UM73); test: ALK enzyme inhibitory activity (HTRF kinase assay), ALK wt.; conditions: read-out: ALK wt. IC50, enzyme level
H2228 = test: Cancer cell proliferation inhibition (SRB/MTS), H2228; conditions: read-out: H2228 GI50
Experimental: as §1, §2

BaF3 EML4-ALK WT cells [2] = conditions: mouse, 3 days
[3] = non-small cell lung cancer cell line, 72 hours

ALK wt., sequence (Q9UM73 19-1620): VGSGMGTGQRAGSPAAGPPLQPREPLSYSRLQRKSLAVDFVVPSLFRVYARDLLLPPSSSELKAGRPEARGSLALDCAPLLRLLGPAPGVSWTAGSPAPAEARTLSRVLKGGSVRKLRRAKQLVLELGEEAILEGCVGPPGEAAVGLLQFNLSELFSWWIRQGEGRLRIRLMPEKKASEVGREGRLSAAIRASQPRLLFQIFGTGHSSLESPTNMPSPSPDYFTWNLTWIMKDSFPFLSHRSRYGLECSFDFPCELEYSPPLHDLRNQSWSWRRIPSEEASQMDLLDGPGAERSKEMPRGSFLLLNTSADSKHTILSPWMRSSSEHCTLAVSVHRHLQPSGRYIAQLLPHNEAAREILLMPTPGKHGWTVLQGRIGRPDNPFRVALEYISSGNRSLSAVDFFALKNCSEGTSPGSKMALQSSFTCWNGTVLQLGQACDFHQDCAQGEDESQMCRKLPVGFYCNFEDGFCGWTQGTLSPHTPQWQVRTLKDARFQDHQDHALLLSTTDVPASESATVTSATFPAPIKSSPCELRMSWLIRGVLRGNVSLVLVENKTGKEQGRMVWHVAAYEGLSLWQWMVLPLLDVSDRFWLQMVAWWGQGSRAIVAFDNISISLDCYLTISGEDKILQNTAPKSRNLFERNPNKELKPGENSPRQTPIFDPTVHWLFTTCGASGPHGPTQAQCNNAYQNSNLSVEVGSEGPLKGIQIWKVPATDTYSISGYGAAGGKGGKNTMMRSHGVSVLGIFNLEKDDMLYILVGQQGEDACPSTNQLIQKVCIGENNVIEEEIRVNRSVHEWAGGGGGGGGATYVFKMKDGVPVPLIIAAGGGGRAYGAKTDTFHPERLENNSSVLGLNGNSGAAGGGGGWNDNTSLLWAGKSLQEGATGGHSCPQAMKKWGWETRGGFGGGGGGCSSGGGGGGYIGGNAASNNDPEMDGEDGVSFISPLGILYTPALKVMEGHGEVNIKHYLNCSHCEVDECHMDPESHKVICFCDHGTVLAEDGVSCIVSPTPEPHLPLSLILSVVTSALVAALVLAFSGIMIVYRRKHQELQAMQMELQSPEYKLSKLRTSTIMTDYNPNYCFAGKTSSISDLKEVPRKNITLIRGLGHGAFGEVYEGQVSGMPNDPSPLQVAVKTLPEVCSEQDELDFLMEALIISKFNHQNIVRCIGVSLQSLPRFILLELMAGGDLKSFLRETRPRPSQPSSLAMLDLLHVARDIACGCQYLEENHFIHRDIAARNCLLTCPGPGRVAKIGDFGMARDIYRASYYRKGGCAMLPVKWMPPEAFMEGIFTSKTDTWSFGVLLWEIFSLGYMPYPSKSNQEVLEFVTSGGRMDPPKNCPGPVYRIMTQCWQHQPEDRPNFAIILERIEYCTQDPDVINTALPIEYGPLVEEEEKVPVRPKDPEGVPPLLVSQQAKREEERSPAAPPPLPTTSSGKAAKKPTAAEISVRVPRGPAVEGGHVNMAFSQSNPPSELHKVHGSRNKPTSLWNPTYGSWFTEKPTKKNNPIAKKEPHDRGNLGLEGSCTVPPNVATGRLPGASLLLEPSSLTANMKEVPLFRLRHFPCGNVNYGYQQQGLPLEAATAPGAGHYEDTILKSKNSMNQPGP

Compound | GI50 (H3122; [3]) | IC50 (BaF3 EML4-ALK WT cells [1]; 3 days, WST-1) | IC50 (ALK wt.) | GI50 (H2228; [3]) | GI50 (H3122; Homo sapiens, NCI-H3122, 72 h) | IC50 (BaF3 EML4-ALK WT cells [2]) | GI50 (H2228; Homo sapiens, NCI-H2228, 72 h) | IC50 (BaF3 EML4-ALK WT cells [1]; Ba/F3 EML4-ALK, 72 h)
COc1cc2c(cc1Nc1ncc(Cl)c(Nc3ccccc3S(=O)(=O)C(C)C)n1)CN(CCO)CC2(C)C [Example 93] | < 50 nM | < 50 nM | < 10 nM | < 50 nM | – | – | – | –
Cc1cc(Nc2ncc(Cl)c(Nc3ccccc3S(=O)(=O)C(C)C)n2)c(OC(C)C)cc1C1CCNCC1 [Comparative Example 2, LDK-378, reference compound] | – | – | – | – | 23 nM | 19 nM | 25 nM | –
CC(C)Oc1cc2c(cc1Nc1ncc(Cl)c(Nc3ccccc3S(=O)(=O)C(C)C)n1)CCN(C(=O)C(F)(F)F)C2 [Example 17, 1-(6-(5-chloro-4-(2-(isopropylsulfonyl)phenylamino)pyrimidin-2-yl)amino-7-isopropoxy-3,4-dihydroisoquinolin-2(1H)-yl)-2,2,2-trifluoroethane-1-one] | – | – | – | – | < 50 nM | – | < 50 nM | < 50 nM
